In patent US11053204B2, “Pyrimidinyloxy benzene derivatives as herbicides” (FMC Corporation, priority 2015, dated 2021):

How the values were obtained:
Type in all cases: in vivo
[1] = tested on: sedge, umbrella (small-flower umbrella sedge, Cyperus difformis); test: Test B flooded paddy test, plant response rating; conditions: 250 g ai/ha; Flood; scale of 0 to 100 where 0 is no effect and 100 is complete control; 13 to 15 days
Text: (§1) At time of treatment, test pots were flooded to 3 cm above the soil surface, treated by application of test compounds directly to the paddy water, and then maintained at that water depth for the duration of the test. Treated plants and controls were maintained in a greenhouse for 13 to 15 days, after which time all species were compared to controls and visually evaluated. […] A dash (-) response means no test result.

[2] = tested on: ducksalad (Heteranthera limosa); test: Test B flooded paddy test, plant response rating; conditions: 250 g ai/ha; Flood; scale of 0 to 100 where 0 is no effect and 100 is complete control; 13 to 15 days
Text: as §1

rice (Oryza sativa) = test: Test B flooded paddy test, plant response rating; conditions: 250 g ai/ha; Flood; scale of 0 to 100 where 0 is no effect and 100 is complete control; 13 to 15 days
Text: as §1

[3] = tested on: barnyardgrass (Echinochloa crus-galli); test: Test B flooded paddy test, plant response rating; conditions: 250 g ai/ha; Flood; scale of 0 to 100 where 0 is no effect and 100 is complete control; 13 to 15 days
Text: as §1

[4] = tested on: wheat (Triticum aestivum); test: Test A postemergence, visual injury rating; conditions: 0 is no effect, 100 is complete control
Text: (§2) Seeds of plant species selected from barnyardgrass (Echinochloa crus-galli), kochia (Kochia scoparia), ragweed (common ragweed, Ambrosia elatior), Italian ryegrass (Lolium multiflorum), large (Lg) crabgrass (Digitaria sanguinalis), giant foxtail (Setaria faberii), morningglory (Ipomoea spp.), pigweed (Amaranthus retroflexus), velvetleaf (Abutilon theophrasti), wheat (Triticum aestivum), and corn (Zea mays) were planted into a blend of loam soil and sand and treated preemergence with a directed soil spray using test chemicals formulated in a non-phytotoxic solvent mixture which included a surfactant.
(§3) At the same time, plants selected from these crop and weed species and also blackgrass (Alopecurus myosuroides), and galium (catchweed bedstraw, Galium aparine) were planted in pots containing the same blend of loam soil and sand and treated with postemergence applications of test chemicals formulated in the same manner. Plants ranged in height from 2 to 10 cm and were in the one- to two-leaf stage for the postemergence treatment. Treated plants and untreated controls were maintained in a greenhouse for approximately 10 days, after which time all treated plants were compared to untreated controls and visually evaluated for injury. Plant response ratings, summarized in Table A, are based on a 0 to 100 scale where 0 is no effect and 100 is complete control. A dash (-) response means no test result.

[5] = tested on: galium (catchweed bedstraw, Galium aparine); test: Test A postemergence, visual injury rating; conditions: 0 is no effect, 100 is complete control
Text: as §2, §3

corn (Zea mays) = test: Test A postemergence, visual injury rating; conditions: 0 is no effect, 100 is complete control
Text: as §2, §3

[6] = tested on: giant foxtail (Setaria faberii); test: Test A postemergence, visual injury rating; conditions: 0 is no effect, 100 is complete control
Text: as §2, §3

[7] = tested on: pigweed (Amaranthus retroflexus); test: Test A postemergence, visual injury rating; conditions: 0 is no effect, 100 is complete control
Text: as §2, §3

[8] = tested on: Italian ryegrass (Lolium multiflorum); test: Test A postemergence, visual injury rating; conditions: 0 is no effect, 100 is complete control
Text: as §2, §3

[9] = tested on: blackgrass (Alopecurus myosuroides); test: Test A postemergence, visual injury rating; conditions: 0 is no effect, 100 is complete control
Text: as §2, §3

[10] = tested on: ragweed (common ragweed, Ambrosia elatior); test: Test A postemergence, visual injury rating; conditions: 0 is no effect, 100 is complete control
Text: as §2, §3

[11] = tested on: barnyardgrass (Echinochloa crus-galli); test: Test A postemergence, visual injury rating; conditions: 0 is no effect, 100 is complete control
Text: as §2, §3

kochia (Kochia scoparia) [12] = test: Test A preemergence, visual injury rating; conditions: 0 to 100 scale (0 no effect, 100 complete control)
Text: as §2, §3

[13] = tested on: giant foxtail (Setaria faberii); test: Test A preemergence, visual injury rating; conditions: 0 to 100 scale (0 no effect, 100 complete control)
Text: as §2, §3

[14] = tested on: pigweed (Amaranthus retroflexus); test: Test A preemergence, visual injury rating; conditions: 0 to 100 scale (0 no effect, 100 complete control)
Text: as §2, §3

[15] = tested on: Italian ryegrass (Lolium multiflorum); test: Test A preemergence, visual injury rating; conditions: 0 to 100 scale (0 no effect, 100 complete control)
Text: as §2, §3

[16] = tested on: ragweed (common ragweed, Ambrosia elatior); test: Test A preemergence, visual injury rating; conditions: 0 to 100 scale (0 no effect, 100 complete control)
Text: as §2, §3

[17] = tested on: barnyardgrass (Echinochloa crus-galli); test: Test A preemergence, visual injury rating; conditions: 0 to 100 scale (0 no effect, 100 complete control)
Text: as §2, §3

kochia (Kochia scoparia) [18] = test: Test A postemergence, visual injury rating; conditions: 0 is no effect, 100 is complete control
Text: as §2, §3

| SMILES | Wheat plant response rating (0 to 100 scale) ([4]; 125 g ai/ha) | Wheat plant response rating (0 to 100 scale) ([4]; 500 g ai/ha) | Galium plant response rating (0 to 100 scale) ([5]; 125 g ai/ha) | Galium plant response rating (0 to 100 scale) ([5]; 500 g ai/ha) | Corn plant response rating (0 to 100 scale) (corn (Zea mays); 125 g ai/ha) | Corn plant response rating (0 to 100 scale) (corn (Zea mays); 500 g ai/ha) | Foxtail, Giant plant response rating (0 to 100 scale) ([6]; 125 g ai/ha) | Foxtail, Giant plant response rating (0 to 100 scale) ([6]; 500 g ai/ha) | Pigweed plant response rating (0 to 100 scale) ([7]; 125 g ai/ha) | Pigweed plant response rating (0 to 100 scale) ([7]; 500 g ai/ha) | Ryegrass, Italian plant response rating (0 to 100 scale) ([8]; 500 g ai/ha) | Blackgrass plant response rating (0 to 100 scale) ([9]; 500 g ai/ha) | Ragweed plant response rating (0 to 100 scale) ([10]; 500 g ai/ha) | Barnyardgrass plant response rating (0 to 100 scale) ([11]; 500 g ai/ha) | Kochia plant response rating (kochia (Kochia scoparia) [12]; 500 g ai/ha) | Foxtail, Giant plant response rating ([13]; 500 g ai/ha) | Pigweed plant response rating ([14]; 500 g ai/ha) | Ryegrass, Italian plant response rating ([15]; 500 g ai/ha) | Ragweed plant response rating ([16]; 500 g ai/ha) | Barnyardgrass plant response rating ([17]; 500 g ai/ha) | also measured |
| --- | --- | --- | --- | --- | --- | --- | --- | --- | --- | --- | --- | --- | --- | --- | --- | --- | --- | --- | --- | --- | --- |
| O=C(OCCCC(F)(F)F)c1c(Oc2ncc(Cl)cn2)cccc1C(F)(F)F [Compound 65] | 0 | 0 | 20 | 70 | 10 | 20 | 40 | 90 | 90 | 100 | 0 | 40 | 30 | 70 | 90 | 100 | 100 | 30 | 80 | 100 | Plant response rating, Sedge, Umbrella [1]: 85; Plant response rating, Ducksalad [2]: 70; Plant response rating, Rice (rice (Oryza sativa)): 0; Plant response rating, Barnyardgrass [3]: 0; Ryegrass, Italian plant response rating (0 to 100 scale) ([8]; 125 g ai/ha): 0; Blackgrass plant response rating (0 to 100 scale) ([9]; 125 g ai/ha): 20; Ragweed plant response rating (0 to 100 scale) ([10]; 125 g ai/ha): 10; Barnyardgrass plant response rating (0 to 100 scale) ([11]; 125 g ai/ha): 30; Kochia plant response rating (kochia (Kochia scoparia) [12]; 125 g ai/ha): 60; Foxtail, Giant plant response rating ([13]; 125 g ai/ha): 100; Pigweed plant response rating ([14]; 125 g ai/ha): 100; Ryegrass, Italian plant response rating ([15]; 125 g ai/ha): 10; Ragweed plant response rating ([16]; 125 g ai/ha): 0; Barnyardgrass plant response rating ([17]; 125 g ai/ha): 30 |
| N#CCOC(=O)c1c(Br)cccc1Oc1ncc(Cl)cn1 [Compound 40] | 0 | 20 | 30 | 40 | 20 | 20 | 10 | 40 | 70 | 100 | 0 | 20 | 0 | 20 | 90 | 100 | 100 | 0 | 0 | 50 | Kochia plant response rating (0 to 100 scale) (kochia (Kochia scoparia) [18]; 125 g ai/ha): 70; Kochia plant response rating (0 to 100 scale) (kochia (Kochia scoparia) [18]; 500 g ai/ha): 100; Ryegrass, Italian plant response rating (0 to 100 scale) ([8]; 125 g ai/ha): 0; Blackgrass plant response rating (0 to 100 scale) ([9]; 125 g ai/ha): 10; Ragweed plant response rating (0 to 100 scale) ([10]; 125 g ai/ha): 0; Barnyardgrass plant response rating (0 to 100 scale) ([11]; 125 g ai/ha): 0; Kochia plant response rating (kochia (Kochia scoparia) [12]; 125 g ai/ha): 60; Foxtail, Giant plant response rating ([13]; 125 g ai/ha): 20; Pigweed plant response rating ([14]; 125 g ai/ha): 40; Ryegrass, Italian plant response rating ([15]; 125 g ai/ha): 0; Ragweed plant response rating ([16]; 125 g ai/ha): 0; Barnyardgrass plant response rating ([17]; 125 g ai/ha): 0 |
| N#CCOC(=O)c1c(C#N)cccc1Oc1ncc(Cl)cn1 [Compound 39] | 0 | 0 | 0 | 0 | 0 | 0 | 0 | 0 | 0 | 0 | 0 | 0 | 0 | 0 | 0 | 0 | 0 | 0 | 0 | 0 | Kochia plant response rating (0 to 100 scale) (kochia (Kochia scoparia) [18]; 125 g ai/ha): 0; Kochia plant response rating (0 to 100 scale) (kochia (Kochia scoparia) [18]; 500 g ai/ha): 0; Ryegrass, Italian plant response rating (0 to 100 scale) ([8]; 125 g ai/ha): 0; Blackgrass plant response rating (0 to 100 scale) ([9]; 125 g ai/ha): 0; Ragweed plant response rating (0 to 100 scale) ([10]; 125 g ai/ha): 0; Barnyardgrass plant response rating (0 to 100 scale) ([11]; 125 g ai/ha): 0; Kochia plant response rating (kochia (Kochia scoparia) [12]; 125 g ai/ha): 0; Foxtail, Giant plant response rating ([13]; 125 g ai/ha): 0; Pigweed plant response rating ([14]; 125 g ai/ha): 0; Ryegrass, Italian plant response rating ([15]; 125 g ai/ha): 0; Ragweed plant response rating ([16]; 125 g ai/ha): 0; Barnyardgrass plant response rating ([17]; 125 g ai/ha): 0 |
| CC(C)(C)OC(=O)c1c(Br)cccc1Oc1ncc(Cl)cn1 [Compound 14] |  | 40 |  | 100 |  | 10 |  | 60 |  | 100 | 70 | 70 | 0 | 40 | 70 | 100 | 100 | 20 | 10 | 60 | Kochia plant response rating (0 to 100 scale) (kochia (Kochia scoparia) [18]; 500 g ai/ha): 70 |
| O=C(OCC(F)(F)F)c1c(Br)cccc1Oc1ncc(Br)cn1 [Compound 34] | 0 | 0 | 50 | 100 | 30 | 30 | 20 | 80 | 100 | 100 | 0 | 70 | 0 | 20 | 40 | 100 | 100 | 0 | 0 | 90 | Kochia plant response rating (0 to 100 scale) (kochia (Kochia scoparia) [18]; 125 g ai/ha): 60; Kochia plant response rating (0 to 100 scale) (kochia (Kochia scoparia) [18]; 500 g ai/ha): 90; Ryegrass, Italian plant response rating (0 to 100 scale) ([8]; 125 g ai/ha): 0; Blackgrass plant response rating (0 to 100 scale) ([9]; 125 g ai/ha): 10; Ragweed plant response rating (0 to 100 scale) ([10]; 125 g ai/ha): 0; Barnyardgrass plant response rating (0 to 100 scale) ([11]; 125 g ai/ha): 0; Kochia plant response rating (kochia (Kochia scoparia) [12]; 125 g ai/ha): 20; Foxtail, Giant plant response rating ([13]; 125 g ai/ha): 70; Pigweed plant response rating ([14]; 125 g ai/ha): 40; Ryegrass, Italian plant response rating ([15]; 125 g ai/ha): 0; Ragweed plant response rating ([16]; 125 g ai/ha): 0; Barnyardgrass plant response rating ([17]; 125 g ai/ha): 0 |
